Measurements as given in US20260216057A1, “PHARMACEUTICAL COMPOSITIONS FOR HERPES VIRUS” (priority 2022, published 2026).

How the values were obtained:
[1] = system: carbonic anhydrase I and/or carbonic anhydrase II; assay: Carbonic anhydrase inhibition; format: biochemical
Excerpt: Carbonic anhydrase inhibition can be measured using a carbonic anhydrase I assay as described in Katritzky et al. (J. Med. Chem. 1987, 30:2058) and a carbonic anhydrase […] assay as described in lyer et al. (J. Biomol. Screen 2006, 11:782).

[2] = Example 12: Compound 1 (Form A) aqueous suspension SC PK study in dog; format: in vivo, male non-naïve Beagle dogs; settings: 10 mg/kg, following an initial drug burst
Description: An aqueous suspension of Compound 1 free form (Form A) in a 0.9% NaCl+0.5% poloxamer 188 vehicle at a concentration of 5.0 mg/mL was prepared as follows: • 1) Vehicle (0.9% w/w NaCl and 0.5% w/w poloxamer 188) was prepared by dissolving NaCl and poloxamer 188 in water. • 2) Appropriate amount of Compound 1 free form was weighed and added to the vehicle. • 3) The mixture was stirred for 15 minutes, then vortexed for 1 minute and then sonicated for 10 minutes. • 4) The final dosing formulation was a homogenous white cloudy suspension.
Male non-naïve beagles with ~10 kg body weight were used for the dog PK study. The animals had free access to food and water. The prepared suspension was administered via subcutaneous injection to each animal group (n=3) with a dosing volume of 2 mL/kg to achieve a 10 mg/kg dose.
At each time point, approximately 0.5 mL of whole blood was collected into K2EDTA tubes. Blood samples were put on ice and centrifuged at 2000 g for 5 min to obtain plasma samples within 15 minutes. Plasma samples were stored at approximately −70° C. until analyzed by LC-MS.

[3] = Example 10: Compound 1 (Form A) aqueous suspension SC PK study in rat; format: in vivo, male Sprague Dawley rats; settings: 10 mg/kg
Description: An aqueous suspension of Compound 1 free form (crystalline Form A) in a 0.9% NaCl+0.5% polysorbate 80 vehicle at a concentration of 3 mg/mL was prepared as follows: • 1) Vehicle (0.9% w/w NaCl and 0.5% w/w polysorbate 80) was prepared by dissolving NaCl and polysorbate 80 in water. • 2) An appropriate amount of Compound 1 free form was weighed and added to the vehicle. • 3) The mixture was vortexed for 1 minute, stirred for 10 minutes and then sonicated for 15 minutes. • 4) The final dosing formulation was a homogenous white cloudy suspension.
Male Sprague Dawley (SD) rats with ~230-250 g body weight (ages 6-8 weeks) were used for the pharmacokinetic study. The animals had free access to food and water.
The Compound 1 suspension described above was administered via sub-cutaneous injection to each animal group (n=3) with a dosing volume of 3.33 mL/kg to achieve a 10 mg/kg dose.
At each time point, approximately 200 μL whole blood was collected in a K2EDTA tube via the jugular vein. Blood samples were put on ice and centrifuged at 2000 g for 5 min to obtain a plasma sample within 15 minutes. Plasma samples were stored at approximately −70° C. until analyzed by LC-MS.

[4] = Injection site observation in Example 7 Compound 1 PK studies; format: in vivo, rat, monkey, dog; settings: SC Compound 1 depot formulations, Example 7, 3 species
Description: The suspension was then dosed to male SD rats at 10 mg/kg according to the Example 2 animal dosing method. The suspension was then dosed to male cyno monkeys at 10 mg/kg according to the Example 3 animal dosing method. The suspension was then dosed to male non-naïve beagle dogs at 10 mg/kg according to the Example 4 animal dosing method.

[5] = Example 3: pritelivir aqueous suspension SC PK study in monkey; format: in vivo, male cynomolgus monkeys; settings: aqueous suspension (dihydrate), 10 mg/kg
Description: The LC-MS methodology and conditions used to analyse pritelivir in plasma samples from the PK studies described in Examples 1 to 5 are provided in Table 1.
An aqueous suspension of crystalline pritelivir free base (dihydrate) in a 0.9% NaCl+0.5% polysorbate 80 vehicle at a concentration of 3.0 mg/mL was prepared as follows: • 1) Vehicle (0.9% w/w NaCl and 0.5% w/w polysorbate 80) was prepared by dissolving NaCl and polysorbate 80 in water. • 2) Appropriate amount of crystalline pritelivir free base (dihydrate) was weighed and added to the vehicle. • 3) Mixture was stirred for 15 minutes, then vortexed for 1 minute and then sonicated for 10 minutes. • 4) The final dosing formulation was a homogenous white cloudy suspension.
Male non-naïve Cyno Monkeys with −5 kg body weight was used for the monkey PK study. The animals had free access to food and water. The prepared suspension was administered via subcutaneous injection to each animal group (n=3) with a dosing volume of 3.33 mL/kg to achieve a 10 mg/kg dose.
At each time point, approximately 0.5 mL whole blood was collected via the cephalic vein into K2EDTA tubes. Blood samples were put on to ice and centrifuged at 2000 g for 5 min to obtain plasma sample within 15 minutes. Plasma samples were stored at approximately −70° C. until analyzed by LC-MS.

prolonged exposure out to [2] | prolonged exposure out to [3] | variability in plasma concentrations [3] | prolonged exposure out to (length of the study) [5] | Compound | carbonic anhydrase inhibition [1] | adverse reactions at the injection sites [4]
at least 220 days | at least 58 days | low |  | Cc1nc(N2CCCN(c3ccc(-c4cc(F)ccc4F)cc3)C2=O)sc1S(N)(=O)=O [Compound 1, 2-(3-(2′,5′-difluoro-[1,1′-biphenyl]-4-yl)-2-oxotetrahydropyrimidin-1(2H)-yl)-4-methylthiazole-5-sulfonamide] | no or low levels of carbonic anhydrase inhibition | no adverse reactions observed
 |  |  | at least 456 hours | Cc1nc(N(C)C(=O)Cc2ccc(-c3ccccn3)cc2)sc1S(N)(=O)=O [pritelivir, N-methyl-N-(4-methyl-5-sulfamoyl-1,3-thiazol-2-yl)-2-[4-(pyridin-2-yl)phenyl]acetamide] |  | 
